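Each compound was tested at five concentrations against cells in 96-well plates for 48 hours. The concentration for 50% growth inhibition is given as GI50.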 Active and inactive are the calls of the source. No stated cut-off is given here; in the data, active = GI50 up to about 1.1 µM and inactive = higher.

The text below walks through data of ChEMBL document CHEMBL1201862, “PubChem BioAssay data set” (2004).

Some test systems named below: OVCAR-8; NCI-H23; A549; SK-MEL-2; COLO 205; M14; TK-10; MDA-N; SK-MEL-5; NCI/ADR-RES; MDA-MB-435; CCRF-CEM; SN12C; UACC-257; SNB-75; EKVX; HCT-15; HCT-116; IGROV-1; NCI-H226.
Common to all, as to assay: NCI anticancer screen, dose series, 48 h

Consider `Cc1ccc2c(O)c3c(cc2c1)C(=O)c1c2c(cc(O)c1C3=O)C1(C)OC(O2)C(O)C(N(C)C)C1O` (stereo not given), for which the GI50 in the assay on OVCAR-8 is 1.19 µM (inactive); in the assay with NCI-H23, 1.26 µM (inactive); with A549 it was 0.719 µM (active); in the assay with SK-MEL-2, 1.85 µM (inactive); in the assay on COLO 205, 0.91 µM (active); with M14 it was 1.56 µM (inactive). For the same molecule, the GI50 was 1.69 µM (inactive) in the assay on TK-10; 1.63 µM (inactive) in the assay with MDA-N; 1.22 µM (inactive) in the assay on SK-MEL-5; 1.4 µM (inactive) in the assay with NCI/ADR-RES; 1.39 µM (inactive) with MDA-MB-435; 0.154 µM (active) in the assay with CCRF-CEM. Further, the GI50 is 1.37 µM (inactive) in the assay on SN12C; 1.51 µM (inactive) with UACC-257; 1.04 µM (active) in the assay on SNB-75; 1.32 µM (inactive) with EKVX; 0.614 µM in the assay with HCT-15; 0.296 µM (active) in the assay with HCT-116. Besides, the GI50 with IGROV-1 is 0.912 µM (active); in the assay with NCI-H226, 1.15 µM (inactive).

Take `O=C1CCCC1C(O)(C(F)(F)F)C(F)(F)F` (stereo not given): the GI50 with OVCAR-8, in the assay on NCI-H23, with A549, in the assay on SK-MEL-2, with COLO 205 and in the assay with M14 was > 100 µM (inactive) throughout. The GI50 with TK-10, in the assay on MDA-N, in the assay with SK-MEL-5, in the assay with NCI/ADR-RES, in the assay with MDA-MB-435 and with CCRF-CEM was > 100 µM (inactive) in each case. Further, the GI50 was > 100 µM (inactive) with SN12C; > 100 µM (inactive) with UACC-257; > 100 µM (inactive) with SNB-75; > 100 µM (inactive) in the assay on EKVX; > 100 µM in the assay on HCT-15; > 100 µM (inactive) with HCT-116. In addition, the GI50 with IGROV-1 and with NCI-H226 was > 100 µM (inactive) each time.

In the case of `CN(N=O)C(=O)Nc1ccc(C(=O)O)cc1`, the GI50 with OVCAR-8, in the assay with NCI-H23, in the assay with A549, with SK-MEL-2, in the assay with COLO 205 and in the assay on M14 was > 100 µM (inactive) throughout. Further, the GI50 in the assay with TK-10, with MDA-N, in the assay with SK-MEL-5, in the assay with NCI/ADR-RES, in the assay on MDA-MB-435 and in the assay on CCRF-CEM was > 100 µM (inactive) throughout. Besides, the GI50 with SN12C is > 100 µM (inactive); in the assay on UACC-257, > 100 µM (inactive); with SNB-75, > 100 µM (inactive); with EKVX it was > 100 µM (inactive); in the assay with HCT-15, > 100 µM; in the assay on HCT-116, > 100 µM (inactive). Further, the GI50 with IGROV-1 and in the assay with NCI-H226 was > 100 µM (inactive) each time.

With `Cc1cc(-c2nc3ccc(F)cc3s2)ccc1NC(=O)C(N)CCCCN` (stereo not given), the GI50 in the assay on OVCAR-8 was 5.97 µM (inactive); in the assay with NCI-H23 it was 4.73 µM (inactive); in the assay on A549, 2.64 µM (inactive); with SK-MEL-2, 10.1 µM (inactive); with COLO 205, 4.51 µM (inactive); with M14, 3.29 µM (inactive). In addition, the GI50 in the assay with TK-10 is 0.0731 µM (active); with MDA-N, 2.52 µM (inactive); in the assay on SK-MEL-5, 9.68 µM (inactive); in the assay on NCI/ADR-RES, 15.1 µM (inactive); with MDA-MB-435, 2.17 µM (inactive); in the assay on CCRF-CEM it was 2.71 µM (inactive). Moreover, the GI50 was 7.76 µM (inactive) with SN12C; 12.8 µM (inactive) in the assay with UACC-257; 4.83 µM (inactive) with SNB-75; 12.6 µM (inactive) in the assay on EKVX; 9.08 µM in the assay on HCT-15; 3.71 µM (inactive) with HCT-116. Moreover, the GI50 was 0.617 µM (active) in the assay with IGROV-1 and 2.44 µM (inactive) in the assay on NCI-H226.

In the case of `CC(C)(CCCCC(C)(C)NCC1COc2ccccc2O1)NCC1COc2ccccc2O1` (stereo not given), the GI50 with OVCAR-8 is > 10 µM (inactive); in the assay on NCI-H23 it was > 10 µM (inactive); in the assay with A549, > 10 µM (inactive); in the assay on SK-MEL-2, 3.29 µM (inactive); in the assay with COLO 205, 2.12 µM (inactive); in the assay on M14, 1.76 µM (inactive). Moreover, the GI50 is > 10 µM (inactive) in the assay on TK-10; 2.81 µM (inactive) in the assay with MDA-N; 1.6 µM (inactive) with SK-MEL-5; > 10 µM (inactive) in the assay with NCI/ADR-RES; 1.81 µM (inactive) with MDA-MB-435; > 10 µM (inactive) in the assay with CCRF-CEM. Moreover, the GI50 was > 10 µM (inactive) in the assay on SN12C; 2.04 µM (inactive) with UACC-257; 9.38 µM (inactive) in the assay on SNB-75; > 10 µM (inactive) in the assay with EKVX; 7.98 µM in the assay on HCT-15; 7.91 µM (inactive) in the assay with HCT-116. The GI50 in the assay on IGROV-1 and in the assay with NCI-H226 was > 10 µM (inactive) in each case.

On to `COC(=O)c1cc2c(cc1CC1Cc3cc4c(cc3C1=O)CCC4)CCC2` (stereo not given), for which the GI50 was 74 µM (inactive) in the assay with OVCAR-8; 41.6 µM (inactive) in the assay on NCI-H23; 40.3 µM (inactive) in the assay on A549; 36.4 µM (inactive) with SK-MEL-2; 33.3 µM (inactive) with COLO 205; 66.8 µM (inactive) with M14. The GI50 in the assay with TK-10 was 73.1 µM (inactive); with MDA-N, 18.2 µM (inactive); in the assay on SK-MEL-5 it was 17.6 µM (inactive); in the assay with NCI/ADR-RES, 38.1 µM (inactive); in the assay with MDA-MB-435 it was 24.7 µM (inactive); in the assay on CCRF-CEM, 21.5 µM (inactive). Also, the GI50 is 57.5 µM (inactive) in the assay with SN12C; 39.1 µM (inactive) with UACC-257; 54.1 µM (inactive) with SNB-75; 67.5 µM (inactive) with EKVX; 36.3 µM in the assay on HCT-15; 33.4 µM (inactive) in the assay with HCT-116. The GI50 in the assay with IGROV-1 was 97.5 µM (inactive); in the assay on NCI-H226 it was 56.6 µM (inactive).

On to `COc1ccccc1-c1cc(=O)c2ccc(OC)c(OC)c2o1`, for which the GI50 in the assay with OVCAR-8 was 54.6 µM (inactive); in the assay on NCI-H23, > 100 µM (inactive); in the assay with A549, 45.6 µM (inactive); in the assay with SK-MEL-2, 70.6 µM (inactive); with COLO 205, 49.3 µM (inactive); in the assay with M14, 64.3 µM (inactive). For the same molecule, the GI50 is 46.6 µM (inactive) with TK-10; 48.2 µM (inactive) in the assay with MDA-N; 27.7 µM (inactive) in the assay with SK-MEL-5; 26.4 µM (inactive) in the assay with NCI/ADR-RES; 46 µM (inactive) with MDA-MB-435; > 100 µM (inactive) with CCRF-CEM. The GI50 with SN12C is 63.1 µM (inactive); in the assay on UACC-257, 44.9 µM (inactive); in the assay on SNB-75, 70.5 µM (inactive); with EKVX, 58.7 µM (inactive); with HCT-15, 41.4 µM; in the assay with HCT-116, 45.9 µM (inactive). The GI50 with IGROV-1 was 97.1 µM (inactive); in the assay with NCI-H226 it was > 100 µM (inactive).
